Values belong to the molecule of their own block, whether it stands above or below them. Groups on a side chain read outwards from the residue. No end group written: not given here. Glu2C18 = not defined here
Assays:
[1] = system: platelets; assay: Aggregation test with platelets, latex beads as carrier: platelet adhesion on collagen-immobilized surface under flow in thrombocytopenia model blood; format: cell-based; conditions: after 180 seconds
Experimental: (§1) A thrombocytopenia model blood was prepared by passing whole blood-through a leukocyte removing filter for leukocyte depleted preparations (NEOIJ, Nihon Pall) by gravity, and adjusting the platelet concentration to 2.0×10^4/μl by adding platelet rich plasma (PRP) (an automatic blood cell counter K-4500, Sysmex, Kobe).
(§2) H12-LB (1.0×10^5 particles/μl) was added to 5 ml of the thrombocytopenia model blood, allowed to stand (37° C., 10 min), flowed on a collagen-immobilized surface using a pump (rate of shear 150 s^−1), and then observed under a fluorescence microscope or through a CCD camera. An adhesion occupying ratio [surface coverage (hereinafter referred to as “SC”)] of micro particles to each surface was measured using an image analyzer (Argus-50, Hamamatsu Photonics).
Only platelets were subjected to fluorescence labeling [3,3′-dihexyloxacarbocyanine iodide (DiOC6)], and their adhesion behavior was periodically observed. As a result, SC of platelets on the surface increased with the lapse of time and was 3.1±0.4% after 180 seconds (FIG. 1: □, control). […] Thus, when H12-LB was added instead of LB, the platelet adhesion was further amplified than the case of the LB addition, and was 5.1±0.3% after 180 seconds, or amplified about 1.7 times than the control (FIG. 1: ∘).

[2] = system: resting platelets; assay: Binding test to resting platelets (flow cytometry aggregation ratio); format: cell-based; conditions: resting platelets 2.0×10^4/μl, beads 1.0×10^5/μl, 37° C., 30 min
Experimental: (§3) Resting platelets (2.0×10^4/μl) were mixed with 1.0×10^5/μl of each of LB, H12-LB and CGGRGDF-LB [LB bound with a peptide having an RGD sequence (Arg-Gly-Asp)], followed by shaking (37° C., 30 min), and the aggregation ratio in each case was evaluated by flow cytometry. […] Based on this, it was confirmed that H12-LB hardly agglutinate to resting platelets when compared with CGGRGDF-LB.

[3] = system: platelets activated by adhering to collagen; assay: Adhesion behavior of FITC-labeled latex beads on collagen-immobilized surface under flow in thrombocytopenia model blood; format: cell-based
Experimental: as §1, §2
In addition, the number of H12-LB bound to the surface was inhibited when the platelet concentration was 0.2×10^4/μl (FIG. 2: •), and were hardly seen in the case of LB (FIG. 2: □).

[4] = biological target: T1, GPIIb/IIIa on resting platelets (UniProt P08514 32-1039; P05106 27-788, limits assumed); assay: flow cytometry, fluorescence-labeled antibody on platelets, PBS added
T1 construct: whole, on cells; also called resting GPIIb/IIIa; normal platelets

[5] = biological target: T1, GPIIb/IIIa on resting platelets; assay: flow cytometry, fluorescence-labeled antibody on platelets, PEG vesicles added
[6] = biological target: T1, GPIIb/IIIa on resting platelets; assay: flow cytometry, fluorescence-labeled antibody on platelets, H12-PEG(PEG) vesicles added
[7] = system: platelets; assay: Interaction with platelets, vesicles as carrier (flow cytometry, PAC-1 and vesicle binding); format: cell-based; conditions: thrombocytopenia plasma, platelets 5.0×10^4/μl, 30 min, 37° C.
Experimental: After 80 μl of thrombocytopenia plasma ([platelets]=5.0×10^4/μl) was prepared, fluorescence-labeled H12-PEG(PEG) vesicles (8.2 μM, 20 μl) or a fluorescence-labeled antibody and H12-PEG(PEG) vesicles (0.082 μM, 20 μl) were added thereto, followed by stirring (30 min, 37° C.). The mixture was subsequently subjected to formaldehyde (3.7%) fixation, diluted 10 times and then measured using flow cytometry.

[8] = system: platelets; assay: Aggregation test with platelets, vesicles as carrier: platelet adhesion on collagen surface under flow in thrombocytopenic blood; format: cell-based; conditions: for SC of platelets (%): thrombocytopenic blood, platelets 5.0×10^4/μl, collagen surface, shear 150 s^-1, H12-PEG-Glu2C18 0.3 mol %
Experimental: Platelets were fluorescence-labeled with DiOC6, and the H12-PEG(PEG) vesicle (1.5 wt %, 200 μl) was added to 5 ml of the thrombocytopenic blood ([platelets]=5.0×10^4/μl), allowed to stand (37° C., 10 min), allowed to flow on the collagen surface at a rate of shear of 150 s^−1, and then observed under a fluorescence microscope. The SC of platelets on the surface was analyzed by Argus-20. When H12-PEG vesicle (H12-PEG-Glu2C18: 0.3 mol %) or PEG vesicle was added to the thrombocytopenic blood ([platelets]=5.0×10^4/μl) and allowed to flow on the collagen surface, the SC was increased in the H12-PEG vesicle-added system, in comparison with the PEG vesicle-added system (Table 1).

[9] = Retention of H12-PEG-Glu2C18 in phospholipid vesicles (1H-NMR molar ratio after shaking); format: physicochemical; conditions: diluted 30 times with PBS, shaken at 37° C. for 12 hours
Experimental: In this connection, the prepared phospholipid vesicles (H12-PEG vesicles, 1.8 wt %) were diluted 30 times with PBS and shaken at 37° C. for 12 hours, and then the vesicles were precipitated by centrifugation (33000 rpm, 1 h) and dispersed, followed by freeze drying, and the resulting powder was subjected to ^1H-NMR measurement.

[10] = biological target: T1, GPIIb/IIIa on resting platelets; assay: flow cytometry, beads (1.0×10^5/µl) mixed with resting platelets (2.0×10^4/µl), 37° C., 30 min
Experimental: as §3, with “(2.0×10⁴/μl)” for “(2.0×10^4/μl)”, “1.0×10⁵/μl” for “1.0×10^5/μl”

T1 sequence (P08514 32-1039 limits assumed, chain 1 of 2): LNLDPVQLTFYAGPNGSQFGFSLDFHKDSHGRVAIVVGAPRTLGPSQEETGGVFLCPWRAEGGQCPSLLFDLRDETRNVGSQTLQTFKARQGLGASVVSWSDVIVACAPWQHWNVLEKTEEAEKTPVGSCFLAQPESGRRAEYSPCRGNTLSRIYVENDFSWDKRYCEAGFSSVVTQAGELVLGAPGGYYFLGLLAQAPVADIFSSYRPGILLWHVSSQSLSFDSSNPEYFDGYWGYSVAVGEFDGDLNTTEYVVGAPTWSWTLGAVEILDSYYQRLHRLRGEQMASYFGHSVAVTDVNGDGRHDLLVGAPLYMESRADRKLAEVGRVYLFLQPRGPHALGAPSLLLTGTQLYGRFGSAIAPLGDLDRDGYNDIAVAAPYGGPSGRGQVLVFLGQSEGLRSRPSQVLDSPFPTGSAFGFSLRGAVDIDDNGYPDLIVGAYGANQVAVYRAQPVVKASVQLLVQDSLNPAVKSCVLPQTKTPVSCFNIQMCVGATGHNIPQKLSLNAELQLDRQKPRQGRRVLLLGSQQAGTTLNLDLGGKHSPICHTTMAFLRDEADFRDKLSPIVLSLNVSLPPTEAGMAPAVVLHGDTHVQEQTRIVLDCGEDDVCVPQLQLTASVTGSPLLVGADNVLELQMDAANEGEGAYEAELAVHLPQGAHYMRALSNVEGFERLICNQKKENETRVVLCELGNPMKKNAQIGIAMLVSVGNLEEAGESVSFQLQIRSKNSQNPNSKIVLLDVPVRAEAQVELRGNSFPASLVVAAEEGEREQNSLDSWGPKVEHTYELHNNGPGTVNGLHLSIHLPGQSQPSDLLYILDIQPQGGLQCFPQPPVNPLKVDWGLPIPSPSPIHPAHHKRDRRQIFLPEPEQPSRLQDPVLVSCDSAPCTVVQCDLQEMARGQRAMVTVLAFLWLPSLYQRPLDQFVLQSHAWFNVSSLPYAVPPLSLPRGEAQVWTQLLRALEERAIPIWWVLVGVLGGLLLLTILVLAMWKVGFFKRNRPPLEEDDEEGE
T1 sequence (P05106 27-788 limits assumed, chain 2 of 2): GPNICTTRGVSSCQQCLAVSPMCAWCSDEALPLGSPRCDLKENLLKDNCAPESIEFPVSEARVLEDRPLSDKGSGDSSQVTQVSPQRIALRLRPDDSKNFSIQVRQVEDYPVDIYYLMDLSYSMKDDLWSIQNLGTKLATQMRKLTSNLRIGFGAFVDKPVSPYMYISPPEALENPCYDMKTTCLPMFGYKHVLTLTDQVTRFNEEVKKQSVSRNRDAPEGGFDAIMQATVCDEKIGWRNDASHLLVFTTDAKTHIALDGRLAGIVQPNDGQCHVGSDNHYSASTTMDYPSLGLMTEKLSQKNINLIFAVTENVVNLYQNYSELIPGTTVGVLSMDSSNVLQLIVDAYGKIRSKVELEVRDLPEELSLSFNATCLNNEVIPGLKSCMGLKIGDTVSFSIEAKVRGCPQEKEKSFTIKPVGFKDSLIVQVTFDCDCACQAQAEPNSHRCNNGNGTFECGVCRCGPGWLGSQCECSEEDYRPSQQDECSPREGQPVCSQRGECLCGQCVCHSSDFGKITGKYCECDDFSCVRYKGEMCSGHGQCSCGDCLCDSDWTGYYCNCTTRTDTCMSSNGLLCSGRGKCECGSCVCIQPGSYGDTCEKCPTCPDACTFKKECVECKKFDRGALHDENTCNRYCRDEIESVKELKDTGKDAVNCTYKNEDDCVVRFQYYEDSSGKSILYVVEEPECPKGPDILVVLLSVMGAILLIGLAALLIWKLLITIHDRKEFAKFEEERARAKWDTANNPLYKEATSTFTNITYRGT

Molecule: H12-LB: Dodecapeptide H12 (SEQ ID NO: 1, via Cys and SPDP linker) coupled to rHSA-adsorbed latex beads of 1 μm diameter (CHHLGGAKQAGDV; cyclised or stapled)
amplification of platelet adhesion versus control (LB) [1]: about 1.7 times | SC (surface coverage) of platelets on collagen surface ([1]; shear 150 s^-1, platelets 2.0×10^4/μl, beads 1.0×10^5 particles/μl, DiOC6-labeled platelets): 5.1±0.3% | aggregation ratio with resting platelets [2]: did not show increase | number of beads bound to collagen surface ([3]; platelet concentration 0.2×10^4/μl (FIG. 2)): inhibited | SC of FITC-labeled beads bound to collagen surface ([3]; platelets 2.0×10^4/μl, shear 150 s^-1 (FIG. 2)): gradually increased

PAC-1 binding (%) [4]: 3.8% | PAC-1 binding (%) [5]: 3.4% | PAC-1 binding (%) [6]: 3.7%
Molecule: PAC-1 (antibody)

Molecule: H12-PEG(PEG) vesicle: DPPC/cholesterol vesicle containing PEG-Glu2C18 and H12-PEG-Glu2C18 (CHHLGGAKQAGDV-OH; not fully specified (residue 1))
PAC-1 binding (%) ([7]; fluorescence-labeled antibody with vesicles): 3.7 ± 0.4% | vesicle binding (%) ([7]; fluorescence-labeled vesicles): 1.4 ± 0.6% | SC of platelets on collagen surface ([8]; H12-PEG-Glu2C18 modification ratio 0.1 mol % or less (FIG. 6)): almost the same as the case of PEG vesicle | SC of platelets on collagen surface ([8]; H12-PEG-Glu2C18 modification ratio 0.3 mol % or more (FIG. 6)): the effect appears | SC of platelets (%) [8]: 17.3 ± 1.9%

Molecule: H12-PEG vesicle: DPPC/cholesterol vesicle containing H12-PEG-Glu2C18 alone (C([MAL‑PEG3400-Glu2C18])HHLGGAKQAGDV-OH; not fully specified; reading uncertain)
stability: retention of H12-PEG-Glu2C18 in vesicles (molar ratio of DPPC, cholesterol and H12-PEG-Glu2C18) [9]: not released from the phospholipid vesicles but stably maintained | SC of platelets (%) [8]: 15.0 ± 5.0%

Molecule: CGGRGDF-LB: LB bound with a peptide having an RGD sequence (Arg-Gly-Asp) (also: bound to latex beads (LB)) [reference compound]
aggregation ratio with resting platelets [2]: 2.9 ± 1.3%

aggregation ratio [10]: 2.9%
Molecule: CGGRGDF (also: bound to latex beads, coupling chemistry not described, Comparison conjugate) [CGGRGDF-LB [LB bound with a peptide having an RGD sequence (Arg-Gly-Asp)]]
